In patent US8188064B2, “Vitamin D analogs for obesity prevention and treatment” (Wisconsin Alumni Research Foundation, priority 2003, dated 2012):
Entries after “also recorded” stand apart in the source; their conditions may differ. Where two headings read alike, the source gives them in different places.

Assays:
[1] = Bone calcium mobilization (serum calcium on low calcium diet); assay type: in vivo, rat; settings: result in words, vitamin D deficient rat model, compared to 1α,25(OH)2D3
Summary of the method: (§1)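 Male weanling Sprague-Dawley rats, vitamin D-deficient, cycled through 0.47% and 0.02% Ca diets, dosed during the last 0.02% Ca week. Four ip doses ~24 h apart; serum calcium measured 24 h after last dose. First 10 cm of intestine taken for everted gut sac calcium transport.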

[2] = test system: 3T3-L1 cells; assay: Inhibition of 3T3-L1 differentiation into mature adipocytes (Oil-Red-O staining); assay type: cell-based, murine; settings: for inhibition of differentiation of 3T3-L1 cells into mature adipocytes (Oil-Red-O staining): result in words, MDI-treated cells, staining at day 10
[3] = test system: SCD-1 mRNA; assay: Inhibition of SCD-1 mRNA induction in 3T3-L1 cells (RT-PCR); assay type: cell-based, murine; settings: for EC50: Mus musculus, 3T3-L1, 96 h, read-out: EC50 for inhibition of murine 3T3-L1 expression of SCD-1 mRNA; for inhibition of SCD-1 mRNA induction: result in words, MDI-treated 3T3-L1 cells
Text: Chomczynski, P. et al., Anal. […] NO: 4)).

[4] = Intestinal calcium transport (everted gut sac); assay type: in vivo; settings: result in words, vitamin D deficient rat model, compared to 1α,25(OH)2D3
Summary of the method: as §1

[5] = test system: C/EBPα mRNA; assay: C/EBPα mRNA induction by MDI in 3T3-L1 cells (RT-PCR); assay type: cell-based, murine; settings: compound present at 1×10^−8 M
Method: Analysis of C/EBPα was determined by PCR using murine primers (upstream=CGA GTA GGG GGA GCA AAA A (SEQ ID NO: 7); downstream=GCA AAA AGC MG GGA TTA GGA G (SEQ ID NO: 8)). RT-PCR was carried out as described above with 0.5 μM each primer, 2 mM MgCl2, and 1×SYBR Green master mix. The murine C/EBPα primers have a 60° C. annealing temperature and a 12 second extension time.

[6] = test system: Human promyelocytic leukemia (HL60) cells; assay: HL-60 differentiation (nitro blue tetrazolium reduction); assay type: cell-based; settings: concentration 1×10^−7 M
Summary of the method: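 Four-day drug treatment of cells grown in RPMI-1640/10% FBS at 37 °C, 5% CO2, ethanol ≦0.2%; then NBT reduction, percent of 200 cells with black-blue formazan.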

[7] = Hypercalcemia / serum calcium analysis; assay type: in vivo, rat; settings: normal vitamin D sufficient rats, very high oral doses
[8] = test system: PPARγ2 mRNA; assay: PPARγ2 mRNA induction by MDI in 3T3-L1 cells (RT-PCR); assay type: cell-based, murine; settings: compound present at 1×10^−8 M
Method: RT-PCR was carried out as described above with 0.5 μM each primer, 2 mM MgCl2, and 1×SYBR Green master mix.

[9] = target: T1, full-length recombinant rat vitamin D receptor (Rattus norvegicus, UniProt P13053); assay: Vitamin D receptor binding (competition with 3H-1,25(OH)2D3); settings: result in words, competition for tritiated hormone binding
T1 construct: Full-length recombinant rat receptor was expressed in E. coli; histidine tag (C); made in house; host or cells: E. coli BL21(DE3) Codon Plus RIL
T1 sequence (P13053 1-423): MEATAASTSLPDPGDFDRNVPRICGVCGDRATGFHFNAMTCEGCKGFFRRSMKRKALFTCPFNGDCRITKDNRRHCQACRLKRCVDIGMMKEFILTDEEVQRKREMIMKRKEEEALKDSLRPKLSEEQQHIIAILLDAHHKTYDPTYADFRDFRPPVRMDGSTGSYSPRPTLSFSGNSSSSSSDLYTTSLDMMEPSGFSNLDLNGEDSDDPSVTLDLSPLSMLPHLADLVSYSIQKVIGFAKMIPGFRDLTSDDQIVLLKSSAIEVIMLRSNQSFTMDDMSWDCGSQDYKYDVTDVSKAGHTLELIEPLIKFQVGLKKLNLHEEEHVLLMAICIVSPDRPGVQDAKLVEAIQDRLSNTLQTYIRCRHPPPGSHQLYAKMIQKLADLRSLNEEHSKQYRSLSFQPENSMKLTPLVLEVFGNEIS
Summary of the method: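 Purified His-tagged receptor from E. coli, diluted in TEDK50 (pH 7.4, 5 mM DTT, 150 mM KCl) with 0.1% Chaps, set so ≤20% of radioligand bound. Competition against 1 nM final 3H-1,25(OH)2D3, ethanol ≤10%, overnight on ice; bound ligand collected on hydroxylapatite, washed, counted by scintillation.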

C=C1/C(=C\C=C2/CCC[C@]3(C)[C@@H]([C@H](C)CCCC(C)(C)O)CC[C@@H]23)C[C@@H](O)C[C@@H]1O [1α,25(OH)2D3, 1α,25-dihydroxyvitamin D3, reference compound]
bone calcium mobilization activity ([1]; listed as calcitriol): quite potent; also recorded: active
inhibition of differentiation of 3T3-L1 cells into mature adipocytes (Oil-Red-O staining) [2]: inhibit; also recorded: inhibition
EC50 [3]: 0.2 nM
inhibition of SCD-1 mRNA induction [3]: inhibition
intestinal calcium transport activity ([4]; listed as calcitriol): quite potent; also recorded: active
C/EBPα mRNA induction by MDI [5]: not induced
cells induced to differentiate in the NBT assay [6]: ~90%
increase in serum calcium [7]: frank hypercalcemia and even death
PPARγ mRNA induction by MDI [8]: not induced

C=C1[C@H](O)CC(=C/C=C2\CCC[C@]3(C)[C@@H]([C@@H](C)CC)CC[C@@H]23)C[C@H]1O [2-MbisP]
bone calcium mobilization activity [1]: little, if any, activity
difference in potency from the native hormone in inhibiting differentiation ([2]; MDI-induced 3T3-L1 cells): < 0.5 log unit
inhibition of differentiation of 3T3-L1 cells into mature adipocytes (Oil-Red-O staining) [2]: inhibit; also recorded: effective
inhibition of differentiation of 3T3-L1 cells into mature adipocytes (Oil-Red-O staining) ([2]; listed as 1α-(20S)2-MbisP): nearly equipotent
inhibition of differentiation of 3T3-L1 cells into mature adipocytes (Oil-Red-O staining) ([2]; listed as (1α,20S)2MbisP): inhibition
inhibition of differentiation of 3T3-L1 cells into mature adipocytes (Oil-Red-O staining) ([2]; listed as (20S)2-MbisP): nearly as potent as the native hormone
inhibition of differentiation of 3T3-L1 cells into mature adipocytes (Oil-Red-O staining) ([2]; listed as (20S)2M-bisP): inhibition
inhibition of differentiation of 3T3-L1 cells into mature adipocytes (Oil-Red-O staining) ([2]; listed as (20S)2MbisP): inhibition
inhibition of differentiation of MDI-treated 3T3-L1 cells (oil-red-O staining) ([2]; tested at 1×10^−8.5 M): active
binding to the vitamin D receptor, compared to 1α,25(OH)2D3 ([9]; listed as 1α-(20S)2-MbisP): nearly the same affinity
binding to the vitamin D receptor, compared to 1α,25(OH)2D3 ([9]; listed as (20S)2-MbisP): as or nearly effective as calcitriol
EC50 ([3]; SCD-1 mRNA at 4 days): ~0.54 nM
times less potent than the native hormone 1,25-(OH)2D3 ([3]; inhibition of SCD-1 mRNA induction): 2 to 3 times
inhibition of SCD-1 mRNA induction ([3]; listed as (1α,20S)2MbisP): inhibition
inhibition of SCD-1 mRNA induction ([3]; listed as (20S)2-MbisP): nearly as potent as the native hormone
inhibition of SCD1 mRNA induction ([3]; tested at 1×10^−8.5 M): active
intestinal calcium transport activity [4]: little, if any, activity
C/EBPα mRNA induction by MDI [5]: not induced
increase in serum calcium [7]: without producing an increase in serum calcium
PPARγ mRNA induction by MDI [8]: not induced
